14 compounds from PubChem BioAssay (NCI) can be followed below.

Each structure is given as a SMILES string.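 Each compound was tested at five concentrations against cells in 96-well plates for 48 hours. TGI marks complete inhibition of growth.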 Where only a bound is given, the exact number is not on record here.

Some test systems named below: ACHN renal; CCRF-CEM leukemia; HS 578T breast; K-562 leukemia; M14 melanoma; RPMI-8226 leukemia; SK-MEL-2 melanoma; SNB-19 CNS; SW-620 colon; T-47D breast.
Common to all, as to assay: growth of human tumour cells (NCI), 48 h

For the compound `Cc1c(NC2(C)C(=O)N(/N=C/c3ccccc3)N=C2c2ccccc2)n[nH]c1-c1ccccc1` (stereo unspecified), the TGI in the assay on ACHN renal, in the assay on CCRF-CEM leukemia, in the assay on HS 578T breast, in the assay with K-562 leukemia, in the assay with M14 melanoma and in the assay on RPMI-8226 leukemia was greater than 100 µM each time. In addition, the TGI in the assay on SK-MEL-2 melanoma, with SNB-19 CNS, in the assay with SW-620 colon and with T-47D breast was greater than 100 µM in each case.
In the case of `O=C(NCc1ccc(Cl)cc1)c1cc2sccc2nc1C(F)(F)F`, the TGI is 45.8 µM in the assay on ACHN renal; greater than 100 µM with CCRF-CEM leukemia; 47.6 µM in the assay on HS 578T breast; greater than 100 µM with K-562 leukemia; greater than 100 µM in the assay with M14 melanoma; greater than 100 µM in the assay with RPMI-8226 leukemia. Moreover, the TGI in the assay with SK-MEL-2 melanoma is greater than 100 µM; in the assay on SNB-19 CNS, 51.7 µM; with SW-620 colon, greater than 100 µM; in the assay with T-47D breast, greater than 100 µM.
`COc1ccc(C2C(C#N)=C(S)N(C3OC(CO)C(O)C(O)C3O)C(c3ccccc3)=C2C(C)=O)cc1` (stereo unspecified): the TGI with ACHN renal, in the assay on CCRF-CEM leukemia, in the assay on HS 578T breast, with K-562 leukemia, in the assay with M14 melanoma and in the assay on RPMI-8226 leukemia was greater than 100 µM throughout. For the same compound, the TGI with SK-MEL-2 melanoma is greater than 100 µM; in the assay with SNB-19 CNS, greater than 100 µM; in the assay with SW-620 colon, greater than 100 µM; with T-47D breast, 69.9 µM.
On to `Cc1ccc(-c2n[nH]c(=O)[nH]2)cc1[N+](=O)[O-]`, for which the TGI in the assay on ACHN renal, in the assay with CCRF-CEM leukemia, with HS 578T breast, in the assay with K-562 leukemia, in the assay with M14 melanoma and with RPMI-8226 leukemia was greater than 100 µM throughout. For the same compound, the TGI in the assay with SK-MEL-2 melanoma, with SNB-19 CNS, in the assay on SW-620 colon and in the assay on T-47D breast was greater than 100 µM each time.
`COc1c(C)c(OC)c2c(c1O)[C@@H]1[C@@H]3Cc4c(OC)c(C)c(OC)c(O)c4[C@H](CNC(=O)c4cnc5ccccc5n4)N3[C@@H](C#N)[C@H](C2)N1C`: the TGI was greater than 0.0414 µM in the assay with ACHN renal; 0.0054 µM in the assay with CCRF-CEM leukemia; 0.0192 µM in the assay on HS 578T breast; 0.018 µM in the assay with K-562 leukemia; 0.00568 µM in the assay with M14 melanoma; 0.00733 µM in the assay on SK-MEL-2 melanoma. The TGI with SNB-19 CNS is greater than 0.0533 µM; in the assay on SW-620 colon it was greater than 0.0313 µM; in the assay with T-47D breast it was 0.00676 µM.
`S=C(S)NCC1CCC(CNC(=S)S)CC1` (stereo unspecified): the TGI in the assay on ACHN renal was 39.2 µM; in the assay with CCRF-CEM leukemia it was greater than 100 µM; with HS 578T breast it was greater than 100 µM; with K-562 leukemia it was greater than 100 µM; in the assay on M14 melanoma, greater than 100 µM; in the assay on RPMI-8226 leukemia it was greater than 100 µM. Also, the TGI was 58.3 µM in the assay on SK-MEL-2 melanoma, greater than 100 µM in the assay on SNB-19 CNS, greater than 100 µM in the assay with SW-620 colon and 38.9 µM in the assay with T-47D breast.
For `COc1cc(C2S/C(=C/c3ccccc3)C(=O)N2c2ccc(Cl)c(Cl)c2)cc(OC)c1OC` (stereo unspecified), the TGI is greater than 100 µM with ACHN renal; greater than 100 µM in the assay on CCRF-CEM leukemia; greater than 91.5 µM in the assay with HS 578T breast; greater than 100 µM in the assay on K-562 leukemia; greater than 100 µM with M14 melanoma; greater than 100 µM with RPMI-8226 leukemia. Also, the TGI with SK-MEL-2 melanoma was greater than 59.6 µM; in the assay with SNB-19 CNS, greater than 100 µM; in the assay on SW-620 colon it was greater than 100 µM; in the assay with T-47D breast it was greater than 100 µM.
For the compound `CN(C)CCCOCCn1c2c(c3ccccc31)CCCC2`, the TGI in the assay with ACHN renal is 29 µM; in the assay on CCRF-CEM leukemia, 30 µM; in the assay on HS 578T breast it was 51.6 µM; with K-562 leukemia, 58.5 µM; in the assay with M14 melanoma, 32.1 µM; in the assay on RPMI-8226 leukemia, 33.9 µM. Besides, the TGI in the assay on SK-MEL-2 melanoma came out at 26.5 µM; in the assay with SW-620 colon, 37.5 µM; in the assay on T-47D breast, 49.7 µM.
Regarding `C/C(O)=C/c1nc2ccc([N+](=O)[O-])cc2nc1/C=C(/C)O`, the TGI with ACHN renal is greater than 100 µM; with CCRF-CEM leukemia, 61.9 µM; with HS 578T breast it was 85.3 µM; in the assay on K-562 leukemia, greater than 100 µM; with M14 melanoma it was greater than 100 µM; in the assay on RPMI-8226 leukemia, 65.1 µM. The TGI in the assay on SK-MEL-2 melanoma is 96.8 µM; in the assay with SNB-19 CNS, greater than 100 µM; with SW-620 colon, greater than 100 µM; with T-47D breast, 87.6 µM.
Turning to `Cc1ccc(S(=O)(=O)c2c(O)c3ccccc3n(C)c2=O)cc1`, the TGI in the assay with CCRF-CEM leukemia, in the assay with HS 578T breast, in the assay with K-562 leukemia, in the assay with M14 melanoma, in the assay on RPMI-8226 leukemia and in the assay with SK-MEL-2 melanoma was greater than 100 µM throughout. Further, the TGI in the assay with SNB-19 CNS, with SW-620 colon and in the assay on T-47D breast was greater than 100 µM in each case.
For `c1ccc2c(c1)nc1n2CCSC1`, the TGI in the assay on ACHN renal, with CCRF-CEM leukemia, in the assay with HS 578T breast, with K-562 leukemia, with M14 melanoma and in the assay on RPMI-8226 leukemia was greater than 100 µM in each case. Further, the TGI in the assay with SK-MEL-2 melanoma, in the assay with SNB-19 CNS, with SW-620 colon and in the assay on T-47D breast was greater than 100 µM in each case.
As for `O=c1[nH]c(Nc2cccc(Cl)c2)nc2nc[nH]c12`, the TGI with ACHN renal, with CCRF-CEM leukemia, in the assay on HS 578T breast, in the assay with K-562 leukemia, in the assay with M14 melanoma and in the assay with RPMI-8226 leukemia was greater than 100 µM in each case. Also, the TGI in the assay with SK-MEL-2 melanoma, with SNB-19 CNS, in the assay with SW-620 colon and with T-47D breast was greater than 100 µM each time.
Take `CC(=O)O[C@H]1C(=O)[C@@]2(C)[C@H]([C@H](OC(=O)c3ccccc3)[C@]3(O)C[C@H](OC(=O)[C@H](O)[C@@H](NC(=O)CC(C)(C)C)c4ccccc4)C(C)=C1C3(C)C)C1(OC(C)=O)CO[C@@H]1C[C@@H]2O` (stereo partly specified): the TGI with ACHN renal was greater than 10 µM; with CCRF-CEM leukemia, greater than 10 µM; with HS 578T breast, 0.00653 µM; with K-562 leukemia, greater than 10 µM; in the assay on M14 melanoma, greater than 10 µM; with SK-MEL-2 melanoma, greater than 10 µM. Besides, the TGI in the assay with SNB-19 CNS, in the assay on SW-620 colon and in the assay on T-47D breast was greater than 10 µM in each case.
With `CC(=O)N1CCN(C23OC4(N5CCN(C(C)=O)CC5)C5C6CC(C7C6C4C72)C53)CC1` (stereo unspecified), the TGI in the assay with ACHN renal, in the assay with CCRF-CEM leukemia, in the assay with HS 578T breast, in the assay on K-562 leukemia, in the assay with M14 melanoma and in the assay on RPMI-8226 leukemia was greater than 100 µM each time. For the same compound, the TGI in the assay with SK-MEL-2 melanoma, in the assay on SNB-19 CNS, with SW-620 colon and in the assay with T-47D breast was greater than 100 µM in each case.
